# Paper PMC6812656 (Cancer cell, 2019)
# Experiments:
# COX-1 = molecular target: T1, COX-1 (Ovis aries, UniProt P05979); experiment: COX fluorescent inhibitor screening assay, COX-1; format: biochemical; details: even at 50 μM
# T1 sequence (P05979 25-600): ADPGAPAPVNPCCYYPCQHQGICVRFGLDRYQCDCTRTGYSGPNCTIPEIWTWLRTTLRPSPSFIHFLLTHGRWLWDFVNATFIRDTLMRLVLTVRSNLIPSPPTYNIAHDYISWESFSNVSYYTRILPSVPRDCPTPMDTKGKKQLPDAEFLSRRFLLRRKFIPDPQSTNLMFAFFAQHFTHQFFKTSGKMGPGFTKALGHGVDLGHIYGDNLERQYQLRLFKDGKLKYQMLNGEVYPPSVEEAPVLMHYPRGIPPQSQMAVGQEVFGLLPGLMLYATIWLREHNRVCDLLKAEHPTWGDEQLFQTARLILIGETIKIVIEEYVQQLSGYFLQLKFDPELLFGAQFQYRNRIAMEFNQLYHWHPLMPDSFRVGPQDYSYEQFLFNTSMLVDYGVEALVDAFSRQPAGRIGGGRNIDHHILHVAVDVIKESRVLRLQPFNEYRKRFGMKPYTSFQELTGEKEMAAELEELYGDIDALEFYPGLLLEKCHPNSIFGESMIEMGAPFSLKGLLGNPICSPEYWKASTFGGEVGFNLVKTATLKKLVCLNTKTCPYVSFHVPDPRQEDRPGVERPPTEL
# NB4 cells [1] = experiment: Cellular uptake by LC-MS/MS quantitation, NB4; format: cell-based, human; details: 10 μM for 24 hr
# MONOMAC6 cells [2] = experiment: Cellular uptake by LC-MS/MS quantitation, MONOMAC6; format: cell-based, human; details: 10 μM for 24 hr
# COX-2 = molecular target: T2, COX-2 (Homo sapiens, UniProt P35354); experiment: COX fluorescent inhibitor screening assay, COX-2; format: biochemical; details: even at 50 μM
# T2 sequence (P35354 18-604): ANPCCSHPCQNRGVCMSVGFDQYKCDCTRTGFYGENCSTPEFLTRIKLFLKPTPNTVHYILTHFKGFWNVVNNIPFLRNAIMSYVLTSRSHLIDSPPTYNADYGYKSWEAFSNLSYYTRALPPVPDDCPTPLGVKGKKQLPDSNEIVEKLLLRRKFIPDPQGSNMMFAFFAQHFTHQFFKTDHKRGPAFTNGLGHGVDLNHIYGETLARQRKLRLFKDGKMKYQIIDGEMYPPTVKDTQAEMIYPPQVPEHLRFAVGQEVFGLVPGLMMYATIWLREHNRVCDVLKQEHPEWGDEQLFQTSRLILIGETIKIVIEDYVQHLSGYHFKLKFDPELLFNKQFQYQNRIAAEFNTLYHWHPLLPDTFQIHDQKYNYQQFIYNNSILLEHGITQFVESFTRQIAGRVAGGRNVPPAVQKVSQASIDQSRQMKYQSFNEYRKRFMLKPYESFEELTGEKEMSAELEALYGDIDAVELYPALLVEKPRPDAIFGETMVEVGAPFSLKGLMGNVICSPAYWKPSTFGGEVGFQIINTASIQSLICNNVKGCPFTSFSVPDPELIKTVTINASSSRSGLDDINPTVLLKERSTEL
# MONOMAC6 cells [3] = experiment: Cell proliferation assay, MONOMAC6; format: cell-based; details: Homo sapiens, MONO-MAC-6, 72 h, read-out: IC50, proliferation
# [4] = system: HDAC, DOTL1, BRD, LSD1 and Jumonji domain-containing histone demethylases; experiment: Inhibition of epigenetic enzymes in vitro; format: biochemical
# NB4 cells [5] = experiment: Cell proliferation assay, NB4; format: cell-based; details: Homo sapiens, NB-4, 72 h, read-out: IC50, proliferation
# ALKBH5 [6] = molecular target: T3, ALKBH5 (Homo sapiens, UniProt Q6P6C2); experiment: HPLC-based assay of inhibition of ALKBH5 m6A demethylation in RNA; format: biochemical
# Target sequence in this assay (Q6P6C2 67-394 limits assumed): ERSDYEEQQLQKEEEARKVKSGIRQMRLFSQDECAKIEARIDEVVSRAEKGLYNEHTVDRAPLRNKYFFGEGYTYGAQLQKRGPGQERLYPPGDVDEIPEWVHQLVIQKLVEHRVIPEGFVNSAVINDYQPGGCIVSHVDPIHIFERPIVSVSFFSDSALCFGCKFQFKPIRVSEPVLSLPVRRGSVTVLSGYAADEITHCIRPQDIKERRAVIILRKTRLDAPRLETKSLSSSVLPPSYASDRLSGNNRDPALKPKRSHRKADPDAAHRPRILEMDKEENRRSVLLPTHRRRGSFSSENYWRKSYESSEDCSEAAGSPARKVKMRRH
# oncogenic proteases = experiment: Protease profiling; format: biochemical, human; details: 1 μM or 10 μM
# [7] = system: primary AML cells (patient Pt 2017_63); experiment: PDX AML mouse model; details: 6 mg/kg/day i.p. for 17 days
# [8] = system: functional primary AML LSCs; experiment: Secondary transplantation of PDX AML cells; details: AML cells from primary FB23-2-treated PDX mice
# FTO [9] = molecular target: T4, FTO (Homo sapiens, UniProt Q9C0B1); experiment: DARTS assay for FTO in AML cell lysates; format: binding; details: 50, 200, 500 μM
# Target sequence in this assay (Q9C0B1 whole entry): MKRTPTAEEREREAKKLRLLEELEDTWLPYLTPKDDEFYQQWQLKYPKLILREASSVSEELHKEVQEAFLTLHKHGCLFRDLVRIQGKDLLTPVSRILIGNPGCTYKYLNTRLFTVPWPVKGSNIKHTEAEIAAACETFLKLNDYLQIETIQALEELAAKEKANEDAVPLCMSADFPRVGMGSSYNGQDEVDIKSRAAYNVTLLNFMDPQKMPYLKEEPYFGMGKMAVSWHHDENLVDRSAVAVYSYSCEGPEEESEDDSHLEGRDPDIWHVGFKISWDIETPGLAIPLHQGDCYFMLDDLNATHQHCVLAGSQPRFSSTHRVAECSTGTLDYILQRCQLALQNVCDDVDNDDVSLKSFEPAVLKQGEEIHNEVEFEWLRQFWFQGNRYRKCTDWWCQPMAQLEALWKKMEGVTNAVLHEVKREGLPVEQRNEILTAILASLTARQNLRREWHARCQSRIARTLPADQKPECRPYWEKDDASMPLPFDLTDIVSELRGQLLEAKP
# TET1 protein = molecular target: T5, TET1 protein (Homo sapiens, UniProt Q8NFU7); experiment: TET1 enzyme activity in vitro; format: biochemical; details: 20 μM
# T5 sequence (Q8NFU7 1418-2136 limits assumed): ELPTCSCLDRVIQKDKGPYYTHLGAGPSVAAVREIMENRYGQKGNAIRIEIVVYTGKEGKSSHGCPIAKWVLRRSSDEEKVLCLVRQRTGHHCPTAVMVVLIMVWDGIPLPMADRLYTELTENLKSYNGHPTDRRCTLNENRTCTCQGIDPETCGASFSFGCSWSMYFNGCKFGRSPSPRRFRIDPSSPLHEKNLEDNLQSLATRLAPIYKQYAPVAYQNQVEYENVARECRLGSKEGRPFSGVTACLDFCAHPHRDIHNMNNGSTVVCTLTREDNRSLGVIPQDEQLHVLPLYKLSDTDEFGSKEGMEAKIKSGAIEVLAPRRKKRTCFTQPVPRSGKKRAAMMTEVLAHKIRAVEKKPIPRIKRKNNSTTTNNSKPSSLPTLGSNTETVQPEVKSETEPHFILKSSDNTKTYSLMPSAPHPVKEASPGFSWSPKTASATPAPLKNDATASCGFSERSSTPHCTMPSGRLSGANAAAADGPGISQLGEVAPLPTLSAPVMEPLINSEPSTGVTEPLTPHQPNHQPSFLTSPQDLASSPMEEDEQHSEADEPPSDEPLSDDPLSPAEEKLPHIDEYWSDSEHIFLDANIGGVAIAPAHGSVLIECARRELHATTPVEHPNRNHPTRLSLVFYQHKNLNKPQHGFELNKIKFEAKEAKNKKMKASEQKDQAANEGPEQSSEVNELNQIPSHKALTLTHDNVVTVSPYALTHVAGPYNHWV
# ALKBH5 [10] = molecular target: T3, ALKBH5; experiment: DARTS assay for ALKBH5 in AML cell lysates; format: binding
# Target sequence in this assay (Q6P6C2 whole entry): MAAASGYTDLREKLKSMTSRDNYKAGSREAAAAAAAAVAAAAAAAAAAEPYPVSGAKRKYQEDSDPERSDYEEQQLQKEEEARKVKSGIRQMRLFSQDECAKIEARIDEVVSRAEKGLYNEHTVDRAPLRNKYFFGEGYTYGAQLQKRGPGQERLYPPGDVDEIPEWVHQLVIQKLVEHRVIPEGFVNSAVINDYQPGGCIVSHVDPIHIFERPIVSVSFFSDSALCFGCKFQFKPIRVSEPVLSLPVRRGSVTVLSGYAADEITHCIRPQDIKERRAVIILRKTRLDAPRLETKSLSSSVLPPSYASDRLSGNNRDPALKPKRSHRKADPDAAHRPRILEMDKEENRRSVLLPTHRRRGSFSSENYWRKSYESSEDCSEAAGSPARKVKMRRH
# [11] = system: MA9.3ITD, MA9.3RAS, U937, ML-2 and MV4-11 AML cell lines; experiment: Cell proliferation assay, panel of additional AML cell lines; format: cell-based; details: Homo sapiens, 96 h, read-out: IC50, proliferation
# [12] = Microsomal stability assay; format: in vitro ADME; details: SD, rat, liver microsomes
# [13] = Pharmacokinetics in SD rats; format: in vivo; details: male, Sprague Dawley, rat, plasma, ip, 3 mg/kg
# FTO [14] = molecular target: T4, FTO; experiment: HPLC-based assay of inhibition of FTO m6A demethylation in RNA; format: biochemical; details: HPLC quantification
# Target sequence in this assay (Q9C0B1 32-505 limits assumed): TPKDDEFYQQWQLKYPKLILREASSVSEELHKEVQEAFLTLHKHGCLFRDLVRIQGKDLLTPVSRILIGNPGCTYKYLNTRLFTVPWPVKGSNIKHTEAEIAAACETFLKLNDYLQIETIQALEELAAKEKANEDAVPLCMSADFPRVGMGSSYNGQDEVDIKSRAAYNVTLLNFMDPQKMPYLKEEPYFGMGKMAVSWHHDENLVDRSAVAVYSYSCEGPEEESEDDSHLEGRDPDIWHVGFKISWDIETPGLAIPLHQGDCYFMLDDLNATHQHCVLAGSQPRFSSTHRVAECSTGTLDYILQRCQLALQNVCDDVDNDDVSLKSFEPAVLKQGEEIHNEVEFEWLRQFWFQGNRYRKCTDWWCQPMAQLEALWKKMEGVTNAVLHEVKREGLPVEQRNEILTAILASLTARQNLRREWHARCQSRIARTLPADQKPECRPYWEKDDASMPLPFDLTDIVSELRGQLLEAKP
# NB4 and MONOMAC6 cells = experiment: Cell proliferation assay, NB4 and MONOMAC6; format: cell-based; details: Homo sapiens, MONO-MAC-6, 72 h, read-out: IC50, anti-proliferative activity
# human primary AML cells = experiment: Cell proliferation assay, primary AML cells from four patients; format: cell-based; details: 96 h, read-out: IC50, proliferation of primary AML cells
# [15] = system: m6A peaks in mRNA of MONOMAC6 AML cells; experiment: m6A-seq in MONOMAC6 cells; format: cell-based, human; details: 5 μM, 72 hr, peaks identified in both DMSO and treated groups
# [16] = Toxicity study in BALB/c mice; format: in vivo; details: 20 mg/kg i.p. daily for 14 days
# MONOMAC6 AML cells = experiment: MONOMAC6 xeno-transplantation leukemic model; format: in vivo, NSGS mice; details: 2 mg/kg i.p. daily for 10 days, from 10 days post xeno-transplantation
# [17] = system: human normal bone marrow (BM) cells; experiment: Proliferation of normal bone marrow cells; format: cell-based; details: BM cells from a healthy donor
compound,measurement,setting,value
"Cc1noc(C)c1-c1cc(Cl)c(Nc2ccccc2C(=O)O)c(Cl)c1 [FB23, 2-((2,6-dichloro-4-(3,5-dimethylisoxazol-4-yl)phenyl)amino)benzoic acid]",inhibition of COX-1,COX-1,neither FB23 nor FB23-2 was observed to significantly inhibit
same,intracellular concentration,NB4 cells [1],0.02 nmol/million
same,intracellular concentration,MONOMAC6 cells [2],0.015 nmol/million
same,inhibition of COX-2,COX-2,neither FB23 nor FB23-2 was observed to significantly inhibit
same,IC50,MONOMAC6 cells [3],23.6 µM
same,effect on activities of epigenetic targets in vitro,[4],slightly attenuated
same,IC50,NB4 cells [5],44.8 µM
same,inhibition of ALKBH5 demethylation in vitro,ALKBH5 [6],neither FB23 nor FB23-2 inhibits
"Cc1noc(C)c1-c1cc(Cl)c(Nc2ccccc2C(=O)NO)c(Cl)c1 [FB23-2, 2-((2,6-dichloro-4-(3,5-dimethylisoxazol-4-yl)phenyl)amino)-N-hydroxybenzamide]",inhibition of oncogenic proteases,oncogenic proteases,barely inhibited
same,median survival time,[7],58 days
same,secondary PDX mice still surviving after 100 days,[8],50%
same,protease resistance of FTO protein (DARTS),FTO [9],protease-resistant
same,inhibition of TET1 protein in vitro,TET1 protein,minimally inhibited
same,inhibition of COX-1,COX-1,neither FB23 nor FB23-2 was observed to significantly inhibit
same,direct binding to ALKBH5 (DARTS),ALKBH5 [10],could not directly bind
same,IC50,[11],1.9 to 5.2 µM
same,inhibition of COX-2,COX-2,neither FB23 nor FB23-2 was observed to significantly inhibit
same,CLint scaled at 3 μM,[12],19.7 mL/min/kg
same,half-life at 3 μM,[12],128 min
same,AUC(0-t),[13],2180 ± 152 ng·h/mL
same,Cmax,[13],2420 ± 90.9 ng/mL
same,Tmax,[13],4.8 min
same,half-life,[13],402 ± 78 min
same,inhibitory activity on FTO demethylation in vitro,FTO [14],maintains inhibitory activity
same,IC50,NB4 and MONOMAC6 cells,800 to 1500 nM
same,IC50,human primary AML cells,1.6 to 16 µM
same,share of m6A peaks increased upon treatment,[15],62.1%
same,effect on activities of epigenetic targets in vitro,[4],slightly attenuated
same,body weight loss,[16],no evidence of body weight loss
same,hematopoiesis (hematology and plasma biochemistry) vs vehicle,[16],no significant difference
same,physical damage on organs,[16],nor was any physical damage observed
same,inhibition of ALKBH5 demethylation in vitro,ALKBH5 [6],neither FB23 nor FB23-2 inhibits
same,survival of leukemic mice,MONOMAC6 AML cells,almost doubling the median survival
same,effect on proliferation of normal BM cells,[17],minimally altered proliferation
